The values that follow come from publication PMC8864869, “A short peptide derived from pigment epithelial-derived factor exhibits an angioinhibitory effect” (BMC Ophthalmology, 2022).

What all share (assay type): cell-based, human
In one assay the test system is RPMI8226 cells. The experiment in a line: Annexin V-FITC/PI double-staining apoptosis assay in RPMI8226 cells. The settings on record: 10 ng/ml VEGF + 25 μM peptide, 24 h, serum-free; early + late apoptosis; mean ± SD, three independent experiments. The protocol:
(§1) Cell apoptosis was examined using a TACS annexin V-FITC kit according to the manufacturer’s instructions for in situ staining. The cell numbers were monitored by counterstaining with Hoechst 33342. Afterward, apoptosis was examined and photographed by a Zeiss epifluorescence microscope (× 100, 10 fields/sample). Images were recorded on Zeiss software.
Fig. 2 The 34-mer and 7-mer induce apoptosis of RPMI8226 cells. a Fluorescence microscopy of annexin V-FITC/PI double staining. Treatment of RPMI8226 cells was as described in Fig. 1. Apoptosis was determined by annexin V-FITC staining (green dots) and double stained with propidium iodide (red dots). A representative of three independent experiments is shown. b The percentage of apoptotic cells was quantified by dividing the number of annexin V-positive cells by the total number of cells counted by phase-contrast light microscopy. Control peptide indicates cells were treated with the 5-mer. Histograms show means ± SD. ^aP < 0.005 versus peptide solvent-treated cells. ^bP < 0.0002 versus VEGF-treated cells. ^cP < 0.001 versus 34-mer-treated cells
Fig. 3 The 7-mer induces JNK signaling to trigger RPMI8226 cell apoptosis. 3 × 10^5 cells were serum starved for 24 h and then exposed to 10 ng/ml VEGF and 25 μM 7-mer for the indicated time periods. a Western blotting was performed to detect the active phosphorylated forms of JNK (p-JNK) and p38 MAPK (p-p38), shown in the upper panels. Antibodies were then stripped and the blots were re-incubated with anti-JNK and anti-p38 MAPK antibodies (lower panels), respectively, to detect the levels of total JNK and p38 MAPK. b Densitometric analyses from three independent experiments are shown. c Cell were pretreated with 10 μM SP600125 or SB203580 for 10 min and then treated as described above for 24 h and apoptosis was quantified using the annexin V-FITC apoptosis detection kit. *P < 0.0001 versus 7-mer-treated cells

The subject of another assay is p38 MAPK. The experiment in a line: Western blot of phosphorylated p38 MAPK in RPMI8226 cells. The settings on record: 10 ng/ml VEGF + 25 μM 7-mer, time course. The source says: Cell lysis and SDS–PAGE were as described previously. Antibodies used in this study were for active p38 MAPK and active JNK (Promega, Madison, WI), p38 MAPK/SAPK2, JNK (Upstate Biotechnology, Lake Placid, NY), p53 (Chemicon, Temecula, CA), bax, p21, cleaved caspase-3 and β-actin (Abcam Ltd., Cambridge, UK). Proteins of interest were detected using the appropriate IgG-horseradish peroxidase-linked secondary antibody (Santa Cruz Biotechnology) and enhanced chemiluminescence reagent (Amersham, Arlington Heights, IL). X-ray films were scanned on a model GS-700 Imaging Densitometer (Bio-Rad, Hercules, CA) and analyzed with Labworks 4.0 software. For quantification, blots from at least three independent experiments were used.
Fig. 3 The 7-mer induces JNK signaling to trigger RPMI8226 cell apoptosis. […] Antibodies were then stripped and the blots were re-incubated with anti-JNK and anti-p38 MAPK antibodies (lower panels), respectively, to detect the levels of total JNK and p38 MAPK. b Densitometric analyses from three independent experiments are shown. c Cell were pretreated with 10 μM SP600125 or SB203580 for 10 min and then treated as described above for 24 h and apoptosis was quantified using the annexin V-FITC apoptosis detection kit. *P < 0.0001 versus 7-mer-treated cells
A general note: A western blot detects proteins with antibodies after separation by electrophoresis.

In assay [1] the test system is HUVECs. The experiment in a line: Endothelial cell capillary-like tube formation assay. The conditions noted are these: 20 ng/ml VEGF, 10 μM 7-mer, matrigel, 0.5% FBS, 6 h. As to the method:
(§2) Cells were grown in Medium 200 with LSGS (supplement contains 1.9% fetal bovine serum, 3 ng/ml bFGF, 10 μg/ml heparin, 1 μg/ml hydrocortisone, and 10 ng/ml EGF). Culture plates were coated with 2% gelatin. Cells (passages 4–8) were cultured at 37 °C in a humidified atmosphere of 5% CO2. For peptide treatment, HUVECs were cultured in low serum (0.5% FBS) medium containing 20 ng/ml VEGF and 7-mer peptide (20 μM, unless otherwise specified).
Growth factor-reduced matrigel was pipetted into pre-chilled 24-well plates (150 μl matrigel per well) and polymerized for 45 min at 37 °C. HUVECs (4 × 10^4 per well) in low serum (0.5% FBS) medium were treated with 20 ng/ml VEGF and 7-mer (10 μM) in matrigel coated plates. After 6 h of incubation, tubular structures were photographed. Images were captured using a Cannon camera on a Zeiss inverted microscope with magnification × 40.
The experiment was repeated three times. Magnification is × 40. b The 7-mer induces HUVEC apoptosis in the presence of VEGF. Cell apoptosis was analyzed using the Annexin V-FITC Apoptosis Detection kit according to the in situ staining protocol after treatment for 16 h. Double staining with an annexin V-FITC and the fluorescent dye Hoechst 33342 was used to visualize the apoptotic cells (green) and nuclei (blue), respectively. […] The percentages of apoptotic cells were quantified. ^aP < 0.005 versus VEGF-treated cells

Assay [2] concerns HUVECs. In words: Annexin V-FITC apoptosis assay in HUVECs. The conditions noted are these: 20 ng/ml VEGF + peptide (20 μM), 0.5% FBS, 16 h; four independent experiments. The protocol: as §2, §1
The experiment was repeated three times. Magnification is × 40. b The 7-mer induces HUVEC apoptosis in the presence of VEGF. Cell apoptosis was analyzed using the Annexin V-FITC Apoptosis Detection kit according to the in situ staining protocol after treatment for 16 h. Double staining with an annexin V-FITC and the fluorescent dye Hoechst 33342 was used to visualize the apoptotic cells (green) and nuclei (blue), respectively. A representative result of four independent experiments is shown. The percentages of apoptotic cells were quantified. ^aP < 0.005 versus VEGF-treated cells

On to “7-mer: PEDF Asp64-Ser70, N-acetylated, C-amidated (Ac-DLYRVRS-NH2; UniProt P36955 64-70, looked up, fragment)”, for which, in the assay with RPMI8226 cells, the “apoptotic (annexin V+) RPMI8226 cells” value was 38.6 ± 2.1%. For the same substance, in the assay with p38 MAPK, the “p38 MAPK phosphorylation” value is on record as “no significant effect on p38 MAPK phosphorylation”. The “VEGF-stimulated tube-like network of HUVECs” value in the assay with HUVECs [1] is reported as “marked decrease of the VEGF-stimulated tube-like network”. Also, the “apoptotic HUVECs (annexin V-FITC)” value with HUVECs [2] came to 43.0 ± 5.5%.
